Assay results taken from patent publication US12037324B2, “Biarylmethyl heterocycles” (Université de Montréal, priority 2016, dated 2024).

What was measured:
Type in all cases: cell-based
[1] = biological target: T1, AGTR1 (Homo sapiens, UniProt P30556); experiment: DiscoveRx β-arrestin2 recruitment assay (enzyme complementation, Pathunter CHO-K1 AGTR1 β-arrestin cell line); conditions: DiscoveRx β-arrestin2 recruitment; for DiscoveRx β-arrestin2 Ymax (%): maximal response
T1 construct: host or cells: Pathunter CHO-K1 AGTR1 β-arrestin cell line (CHO-K1)
T1 sequence (P30556 1-359): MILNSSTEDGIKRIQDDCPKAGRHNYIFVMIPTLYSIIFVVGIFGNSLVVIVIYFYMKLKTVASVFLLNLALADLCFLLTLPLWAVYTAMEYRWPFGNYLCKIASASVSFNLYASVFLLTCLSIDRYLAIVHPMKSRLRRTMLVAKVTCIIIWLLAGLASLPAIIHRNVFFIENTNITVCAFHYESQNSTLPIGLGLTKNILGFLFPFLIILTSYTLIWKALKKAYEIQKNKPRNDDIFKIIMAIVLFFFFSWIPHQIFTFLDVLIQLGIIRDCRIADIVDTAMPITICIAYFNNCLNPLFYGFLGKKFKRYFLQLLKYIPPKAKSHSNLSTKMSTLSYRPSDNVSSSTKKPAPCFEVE
How it was run: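 Chemiluminescent enzyme-complementation read-out of β-arrestin2 recruitment to AGTR1 in engineered CHO-K1 cells after 90 min compound exposure at 37° C. Values are 4-parameter logistic EC50s in agonist mode, IC50s in antagonist mode, with efficacy relative to the maximal All response.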

[2] = biological target: T1, AGTR1; experiment: DiscoveRx IP1 accumulation assay (HTRF), agonist mode, Pathunter CHO-K1 AGTR1 β-arrestin cell line; conditions: for EC50: read-out: IP-1 EC50
How it was run: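 Agonist mode in CHO-K1 AGTR1 β-arrestin cells plated 14-16 h before; compounds at varying concentrations for 90 min at 37° C, IP1 accumulation read by HTRF (D2-conjugate and anti-IP1 cryptate, 20 min room temperature). EC50 from 4-parameter logistic fit; activity given as percentage of maximal AII effect.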

[3] = biological target: T2, hAT1R (Homo sapiens, UniProt P30556); experiment: BRET β-arrestin2 biosensor assay, higher receptor expression (hAT1R 5 ng/well), HEK293 cells; conditions: for EC50: High AT1R Expression
T2 sequence (P30556 1-359): T1 sequence (P30556 1-359)

Row | Structure (SMILES) | EC50 [1] [nM] | DiscoveRx β-arrestin2 Ymax (%) [1] [%] | EC50 [2] [nM] | BRET β-Arrestin2 High AT1R Expression Ymax (%) [3] [%] | EC50 [3] [nM] | IP-1 Ymax (%) [2] [%]
1 | CCCCC1=NC2(CCCC2)C(=O)N1Cc1ccc(-c2cc(N3CC(C)(C)c4ccccc43)ccc2-c2nn[nH]n2)cc1 [Example 107] | 26.7 | 24.6 | > 100000 | 54.3 | 226 | –
2 | CCCCC1=NC2(CCCC2)C(=O)N1Cc1ccc(-c2cc(-n3ccc4ccc(F)cc43)ccc2-c2nn[nH]n2)cc1 [Example 109] | 19.6 | 17.4 | > 100000 | 59.9 | 73.1 | –
3 | CCCCC1=NC2(CCCC2)C(=O)N1Cc1ccc(-c2cc(N3CCCC(F)(F)C3)ccc2-c2noc(=O)[nH]2)cc1 [Example 121, 3-(4′-((2-butyl-4-oxo-1,3-diazaspiro[4.4]non-1-en-3-yl)methyl)-5-(3,3-difluoropiperidin-1-yl)-[1,1′-biphenyl]-2-yl)-1,2,4-oxadiazol-5(4H)-one] | 302 | 47.4 | 368 | 98.0 | 431 | 7.2
4 | CCCCC1=NC2(CCCC2)C(=O)N1Cc1ccc(-c2cc(-c3ccsn3)ccc2-c2nn[nH]n2)cc1 [Example 123, 2-butyl-3-((5′-(isothiazol-3-yl)-2′-(2H-tetrazol-5-yl)-[1,1′-biphenyl]-4-yl)methyl)-1,3-diazaspiro[4.4]non-1-en-4-one] | 9.7 | 4.9 | > 100000 | 20.6 | 65.3 | –
5 | CCCCC1=NC2(CCCC2)C(=O)N1Cc1ccc(-c2cc(-c3ccc(C(=O)NC)cc3)ccc2-c2nn[nH]n2)cc1 [Example 124] | 64.9 | 28.1 | > 100000 | 32.6 | 138 | –
6 | CCCCC1=NC2(CCCC2)C(=O)N1Cc1ccc(-c2cc(-c3cccnc3)ccc2-c2nn[nH]n2)cc1 [Example 125] | 45.3 | 16.6 | > 100000 | 15.1 | 300 | –
7 | CCCCC1=NC2(CCCC2)C(=O)N1Cc1ccc(-c2cc(-c3ccc(CO)cc3)ccc2-c2nn[nH]n2)cc1 [Example 126] | 5.3 | 17.3 | > 100000 | 65.1 | 47.1 | –
8 | CCCCC1=NC2(CCCC2)C(=O)N1Cc1ccc(-c2cc(-c3ccccc3CO)ccc2-c2nn[nH]n2)cc1 [Example 128] | 25.7 | 14.5 | > 100000 | 11.0 | 133 | –
9 | CCCCC1=NC2(CCCC2)C(=O)N1Cc1ccc(-c2cc(-c3ccsc3)ccc2-c2nn[nH]n2)cc1 [Example 130] | 21.9 | 31.2 | 108 | 80.0 | 26.1 | 5.9
10 | CCCCC1=NC2(CCCC2)C(=O)N1Cc1ccc(-c2cc(-c3cccs3)ccc2-c2nn[nH]n2)cc1 [Example 131] | 13.7 | 19.1 | > 100000 | 42.5 | 49 | –
11 | CCCCC1=NC2(CCCC2)C(=O)N1Cc1ccc(-c2cc(-c3ccc(OC(F)(F)F)cc3)ccc2-c2nn[nH]n2)cc1 [Example 134] | 73.5 | 40.3 | 102 | 77.0 | 158 | 4.0
12 | CCCCC1=NC2(CCCC2)C(=O)N1Cc1ccc(-c2cc(-c3cccc(F)c3F)ccc2-c2nn[nH]n2)cc1 [Example 135] | 13.7 | 38.6 | > 100000 | 94.8 | 28.7 | –
13 | CCCCC1=NC2(CCCC2)C(=O)N1Cc1ccc(-c2cc(-c3ccc(OC(F)F)cn3)ccc2-c2nn[nH]n2)cc1 [Example 136] | 4.9 | 43.2 | 14.4 | 94.2 | 9.9 | 18.1
14 | CCCCC1=NC2(CCCC2)C(=O)N1Cc1ccc(-c2cc(-c3cscn3)ccc2-c2nn[nH]n2)cc1 [Example 137] | > 100000 | – | > 100000 | 12.2 | 35.3 | –
15 | CCCCC1=NC2(CCCC2)C(=O)N1Cc1ccc(-c2cc(-c3cccc(C(F)(F)F)n3)ccc2-c2nn[nH]n2)cc1 [Example 142] | 27.5 | 22.7 | 140 | 82.9 | 59.2 | 4.8
16 | CCCCC1=NC2(CCCC2)C(=O)N1Cc1ccc(-c2cc(-c3ccccc3)ccc2-c2noc(=O)[nH]2)cc1 [Example 143, 3-(4″-((2-butyl-4-oxo-1,3-diazaspiro[4.4]non-1-en-3-yl)methyl)-[1,1′:3′,1″-terphenyl]-4′-yl)-1,2,4-oxadiazol-5(4H)-one] | 8.4 | 47.4 | 18.3 | 94.6 | 8.2 | 5.2
17 | CCCCC1=NC2(CCCC2)C(=O)N1Cc1ccc(-c2cc(-c3cccc(F)c3F)ccc2-c2noc(=O)[nH]2)cc1 [Example 144, 3-(4″-((2-butyl-4-oxo-1,3-diazaspiro[4.4]non-1-en-3-yl)methyl)-2,3-difluoro-[1,1′:3′,1″-terphenyl]-4′-yl)-1,2,4-oxadiazol-5(4H)-one] | 12.3 | 33.3 | > 100000 | 104.0 | 26.8 | –
18 | CCCCC1=NC2(CCCC2)C(=O)N1Cc1ccc(-c2cc(-c3ccccc3)ccc2C(=O)O)cc1 [Example 145, 4″-((2-butyl-4-oxo-1,3-diazaspiro[4.4]non-1-en-3-yl)methyl)-[1,1′:3′,1″-terphenyl]-4′-carboxylic acid] | 27.3 | 36.3 | 57.1 | 81.5 | 64.4 | 3.1
19 | CCc1nc2c(C)cc(C)nc2n1Cc1ccc(-c2cc(-c3ccccc3O)ccc2C(=O)O)cc1 [Example 184] | 31 | 51.2 | 110 | 85.9 | 14.7 | 12.0
20 | CCc1nc2c(C)cc(C)nc2n1Cc1ccc(-c2cc(Oc3cccc(Cl)c3)ccc2-c2nnn[nH]2)cc1 [Example 206] | 11.1 | 21.2 | 35.4 | 57.9 | 15.8 | 4.8
21 | CCc1nc2c(C)cc(C)nc2n1Cc1ccc(-c2cc(Oc3cccc(OC(F)(F)F)c3)ccc2-c2nnn[nH]2)cc1 [Example 207] | 11.5 | 23.1 | 39.1 | 74.8 | 22 | 2.5
22 | CCc1nc2c(C)cc(C)nc2n1Cc1ccc(-c2cc(Oc3ccccc3)cc(C)c2-c2nnn[nH]2)cc1 [Example 211, 2-Ethyl-5,7-dimethyl-3-((3′-methyl-5′-phenoxy-2′-(1H-tetrazol-5-yl)-[1,1′-biphenyl]-4-yl)methyl)-3H-imidazo[4,5-b]pyridine] | 96.8 | 21.2 | 235 | 80.2 | 67 | 8.7
23 | CCc1nc2c(C)cc(C)nc2n1Cc1ccc(-c2cc(OCc3ccccc3)ccc2-c2nnn[nH]2)cc1 [Example 212, 3-((5′-(Benzyloxy)-2′-(1H-tetrazol-5-yl)-[1,1′-biphenyl]-4-yl)methyl)-2-ethyl-5,7-dimethyl-3H-imidazo[4,5-b]pyridine] | 10.1 | 11.2 | 20.1 | 29.2 | 10.6 | 3.8
24 | CCc1nc2c(C)cc(C)nc2n1Cc1ccc(-c2cc(Oc3ccccc3)ccc2C(=O)O)cc1 [Example 213, 4′-((2-Ethyl-5,7-dimethyl-3H-imidazo[4,5-b]pyridin-3-yl)methyl)-5-phenoxy-[1,1′-biphenyl]-2-carboxylic acid] | 215 | 27.3 | 862 | 89.9 | 92.9 | 6.9
25 | CCc1nc2c(C)cc(C)nc2n1Cc1ccc(-c2cc(Oc3ccc(C)cn3)ccc2-c2nn[nH]n2)cc1 [Example 248] | 26.5 | 18.2 | 81.7 | 79.5 | 14 | 6.8
